These results are taken from PubChem BioAssay (NCI).

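Growth conditions: 96-well plates. Treatment: test compound, 48 hours, 5 concentrations. Analysis: linear interpolation between bracketing concentrations; unreached endpoints set to highest concentration. The concentration for 50% growth inhibition is given as GI50. TGI is the concentration that stops growth completely.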

Some test systems named below: CCRF-CEM leukemia; SW-620 colon; RPMI-8226 leukemia; HS 578T breast; ACHN renal; HOP-62 NSCLC; SF-539 CNS; CAKI-1 renal; UO-31 renal; UACC-257 melanoma.
What all share (assay): DTP human tumour cell line panel, 48 h

A word on the GI50: it is the concentration that inhibits growth by half. As usually defined, the TGI is the concentration at which net growth stops. As to `O=C(N/N=C\c1ccc(N(CCCl)CCCl)cc1[N+](=O)[O-])c1cccnc1`, the GI50 in the assay with CCRF-CEM leukemia, in the assay with SW-620 colon, in the assay with RPMI-8226 leukemia, with HS 578T breast, in the assay on ACHN renal and in the assay with HOP-62 NSCLC was above 100 µM each time. The GI50 in the assay with SF-539 CNS, in the assay on CAKI-1 renal, in the assay with UO-31 renal and in the assay with UACC-257 melanoma was above 100 µM throughout. The TGI in the assay on CCRF-CEM leukemia, in the assay on SW-620 colon, with RPMI-8226 leukemia, in the assay with HS 578T breast, in the assay with ACHN renal and in the assay with HOP-62 NSCLC was above 100 µM throughout. The concentration for total growth inhibition (TGI) in the assay on SF-539 CNS, in the assay on CAKI-1 renal, in the assay on UO-31 renal and in the assay on UACC-257 melanoma was above 100 µM throughout.

On to `COC(=O)c1ccc(C)cc1CC1Cc2ccc(C)cc2C1=O` (stereo not given), for which the TGI is 74.5 µM in the assay with CCRF-CEM leukemia; above 100 µM in the assay with SW-620 colon; 36.5 µM in the assay on RPMI-8226 leukemia; 48.9 µM in the assay with HS 578T breast; 80.8 µM in the assay with ACHN renal; above 100 µM in the assay on HOP-62 NSCLC. Further, the TGI is 19.5 µM in the assay on SF-539 CNS, above 100 µM in the assay with CAKI-1 renal, 64 µM in the assay on UO-31 renal and 53.6 µM in the assay with UACC-257 melanoma.

`CCOC(=O)C(NC(=O)c1ccccc1)(N1CCN(c2cc3c(cc2F)c(=O)c(C(=O)O)cn3CC)CC1)C(F)(F)F` (stereo not given): the TGI was 86.2 µM in the assay on CCRF-CEM leukemia; above 100 µM in the assay on SW-620 colon; 69 µM in the assay on RPMI-8226 leukemia; above 100 µM in the assay on HS 578T breast; above 100 µM in the assay on ACHN renal; above 100 µM in the assay on HOP-62 NSCLC. Moreover, the TGI was 82.9 µM with SF-539 CNS, 48.4 µM with CAKI-1 renal, 98.1 µM with UO-31 renal and 44.7 µM with UACC-257 melanoma.

Turning to `COc1cc2c(c(O)c1OC)CC1CCC(=O)N1C2c1cccc2ccccc12` (stereo not given), the total growth inhibition concentration (TGI) was above 100 µM in the assay on CCRF-CEM leukemia; 73 µM in the assay on SW-620 colon; above 100 µM in the assay on RPMI-8226 leukemia; 69.3 µM in the assay on HS 578T breast; above 100 µM in the assay with ACHN renal; 41.8 µM in the assay on HOP-62 NSCLC. Further, the TGI in the assay with SF-539 CNS worked out at 30.6 µM; in the assay with CAKI-1 renal it was 47.1 µM; in the assay on UO-31 renal, 55.4 µM; in the assay on UACC-257 melanoma it was 61 µM.

Consider `CCOC(=O)c1nc2ccc(C(F)(F)F)cc2nc1Nc1ccc(Cl)c(Cl)c1`, for which the concentration for total growth inhibition (TGI) with CCRF-CEM leukemia, in the assay on SW-620 colon, in the assay with RPMI-8226 leukemia, in the assay on HS 578T breast, with ACHN renal and in the assay on HOP-62 NSCLC was above 100 µM in each case. Also, the TGI with SF-539 CNS, with CAKI-1 renal, in the assay on UO-31 renal and in the assay with UACC-257 melanoma was above 100 µM each time.

Consider `COc1ccccc1NC(=O)CC(=O)N1N=C(N2c3ccccc3Sc3ccccc32)CC1c1ccccc1` (stereo not given), for which the TGI in the assay on CCRF-CEM leukemia, with SW-620 colon, in the assay with RPMI-8226 leukemia, with HS 578T breast, in the assay on ACHN renal and with HOP-62 NSCLC was above 100 µM throughout. In addition, the TGI with SF-539 CNS, in the assay on CAKI-1 renal, with UO-31 renal and in the assay on UACC-257 melanoma was above 100 µM in each case.

As to `COc1cc(OC)cc(-c2n/c(=C\c3c(O)[nH]c4ccc(OC)cc34)cc3c2=Nc2ccccc2-3)c1`, the GI50 was 2.78 µM in the assay with CCRF-CEM leukemia; 3.92 µM in the assay on SW-620 colon; 8.88 µM in the assay on RPMI-8226 leukemia; 16.1 µM in the assay on HS 578T breast; above 100 µM in the assay with ACHN renal; 15.6 µM in the assay with HOP-62 NSCLC. The GI50 in the assay with SF-539 CNS was 10.4 µM; in the assay with CAKI-1 renal, above 100 µM; in the assay on UO-31 renal, 41.6 µM; with UACC-257 melanoma, 23.3 µM. Moreover, the TGI was 12.2 µM with CCRF-CEM leukemia; 22.4 µM in the assay with SW-620 colon; 72.7 µM in the assay with RPMI-8226 leukemia; 47.7 µM with HS 578T breast; above 100 µM in the assay on ACHN renal; 34.1 µM in the assay with HOP-62 NSCLC. Also, the total growth inhibition concentration (TGI) with SF-539 CNS was 25.4 µM; in the assay with CAKI-1 renal, above 100 µM; in the assay on UO-31 renal it was above 100 µM; in the assay with UACC-257 melanoma, 49.8 µM.

Regarding `COc1ccc2c3c([nH]c2c1)CCN(CCCC(=O)c1ccc(F)cc1)C3`, the TGI with CCRF-CEM leukemia is 54.9 µM; with SW-620 colon it was 32.8 µM; in the assay with RPMI-8226 leukemia, 37.3 µM; in the assay with HS 578T breast, 31.7 µM; with ACHN renal, 30.8 µM; in the assay on HOP-62 NSCLC, 27 µM. The TGI in the assay on SF-539 CNS came to 22.3 µM; with CAKI-1 renal, 31.8 µM; in the assay on UO-31 renal it was 27.5 µM; in the assay on UACC-257 melanoma, 31.7 µM.

For `CC(=O)Oc1ccc2c(c1)CC[C@@H]1C2[C@@H](O[N+](=O)[O-])C[C@@]2(C)C1CC[C@@H]2O[N+](=O)[O-]` (stereo not given in full), the concentration for total growth inhibition (TGI) in the assay on CCRF-CEM leukemia was 38.8 µM; in the assay on SW-620 colon, 33.1 µM; in the assay with RPMI-8226 leukemia, 31 µM; in the assay on HS 578T breast, 47.7 µM; in the assay on ACHN renal it was 22 µM; in the assay on HOP-62 NSCLC, 15.5 µM. In addition, the TGI worked out at 35.9 µM with SF-539 CNS, 33.6 µM in the assay with CAKI-1 renal, 26.1 µM with UO-31 renal and 25.9 µM in the assay with UACC-257 melanoma.
